Literature values in patent US12121591B2, “Sulfur-containing ionizable lipids for the delivery of nucleic acids and other therapeutic agents” (NanoVation Therapeutics Inc., priority 2022, dated 2024).

Conditions: delivery of siRNA, relative to KC2

CCCCC/C=C\C/C=C\CCCCCCCCC(CCCCCCCC/C=C\C/C=C\CCCCC)OC(=O)CCCN(C)C [MC3]
siRNA required, times less than KC2: about 3 times
